In patent publication US5011846A, “Medicament compositions derived from quinolizine and quinolizinone and methods of use thereof” (Merrell Dow Pharmaceuticals Inc., priority 1988, dated 1991):
Structures can show the parent of a compound that is named as a salt.

How the values were obtained:
[1] = biological target: 5-HT M-receptor; settings: literature values (Fozard et al.), 5-HT receptor antagonism; cited from earlier work
[2] = test system: acute migraine attack; settings: cited from earlier work
[3] = test system: nausea and vomiting induced by cancer chemotherapeutic agents; settings: animal experimental model (Miner et al.; Costall et al.); cited from earlier work
[4] = test system: Von Bezold-Jarisch Reflex induced by 5-HT; experiment: Von Bezold-Jarisch Reflex induced by 5-HT injected intravenously into the rat; type: in vivo
Text: The activity of these compounds against 5-HT can be assessed in vivo by measurement of the effect of the compound on the Von Bezold-Jarisch Reflex induced by 5-HT injected intravenously into the rat (see Paintal A.S., Physiol. Rev. 53, 159-227, 1973; J. R. Fozard, Naunyn-Schmiedeberg's Arch. Pharmacol., 326, 1984, 36-44). The transient cardiac slowing arises from an increased afferent vagus activity arising from stimulation by 5-HT of sensory afferent fibers in and around the heart.

[5] = 0.01-0.1 mg/kg given intravenously

Compound	pA2 [1]	prevention of nausea and vomiting induced by cancer chemotherapeutic agents [3]	other results
CCN(CC)CCNC(=O)c1cc(Cl)c(N)cc1OC [metoclopramide]	7.2	highly effective	relief of an acute migraine attack ([2]; slow intravenous injection, 10 mg (Hughes 1977)): immediate relief of an acute migraine attack
CN1[C@@H]2CC[C@H]1C[C@H](OC(=O)c1ccccc1)C2 [pseudotropyl benzoate]	7.0	–	–
CN1[C@@H]2CC[C@H]1C[C@@H](OC(=O)c1c[nH]c3ccccc13)C2 [(3α-tropanyl)-1H-indole-3-carboxylic acid ester]	–	highly effective	–
CN1[C@@H]2CC[C@H]1C[C@@H](OC(=O)c1ccccc1)C2 [benzoyltropine]	7.2	–	–
COC(=O)[C@H]1[C@@H](OC(=O)c2ccccc2)C[C@@H]2CC[C@H]1N2 [nor (-) cocaine]	7.7	–	–
O=C(OC1CC2CC3CC(C1)N2CC3=O)c1c[nH]c2ccccc12 (stereo not drawn) [endo-hexahydro-8-(3-indolylcarbonyloxy)-2,6-methano-2H-quinolizin-3(4H)-one hydrochloride]	–	–	suppression of Von Bezold-Jarisch Reflex response [4, 5]: suppressed the response dose-dependently; suppression of Von Bezold-Jarisch Reflex response ([4]; 0.25-1 mg/kg given orally): suppressed the response dose-dependently
CN1[C@@H]2CC[C@H]1C[C@@H](OC(=O)c1cc(Cl)cc(Cl)c1)C2 [3,5-dichlorobenzoyltropine]	–	highly effective	efficacy in the acute migraine attack ([2]; double-blind clinical trial (Loisy et al.)): proved an effective treatment
Cc1cc(C)cc(C(=O)OC2CC3CC4CC(C2)N3CC4=O)c1 (stereo not drawn) [endo-8-(3,5-dimethylbenzoyl-oxy)hexahydro-2,6-methano-2H-quinolizin-3(4H)-one]	–	–	suppression of Von Bezold-Jarisch Reflex response [4, 5]: suppressed the response dose-dependently; suppression of Von Bezold-Jarisch Reflex response ([4]; 0.25-1 mg/kg given orally): suppressed the response dose-dependently
